From US20140206681A1, “BTK INHIBITORS” (priority 2013, published 2014)
pIC50: −log10 of the molar value.

The compounds below were run against T1, BTK enzyme (recombinant full-length BTK, hBTK) (Homo sapiens, UniProt Q06187) (assay: BTK enzyme activity assay, LANCE TR-FRET). Conditions: 50 pM hBTK, 2 μM biotin-A5-peptide, 25 μM ATP; 60 min compound & enzyme incubation; read-out: IC50 BTK activity value.
T1 construct: recombinant protein from baculovirus-transfected Sf9 cells: full-length BTK, 6HIS-tag cleaved; 6HIS (cleaved yes); made in house; host or cells: baculovirus-transfected Sf9 cells
Assay type: biochemical

T1 sequence (Q06187 whole entry): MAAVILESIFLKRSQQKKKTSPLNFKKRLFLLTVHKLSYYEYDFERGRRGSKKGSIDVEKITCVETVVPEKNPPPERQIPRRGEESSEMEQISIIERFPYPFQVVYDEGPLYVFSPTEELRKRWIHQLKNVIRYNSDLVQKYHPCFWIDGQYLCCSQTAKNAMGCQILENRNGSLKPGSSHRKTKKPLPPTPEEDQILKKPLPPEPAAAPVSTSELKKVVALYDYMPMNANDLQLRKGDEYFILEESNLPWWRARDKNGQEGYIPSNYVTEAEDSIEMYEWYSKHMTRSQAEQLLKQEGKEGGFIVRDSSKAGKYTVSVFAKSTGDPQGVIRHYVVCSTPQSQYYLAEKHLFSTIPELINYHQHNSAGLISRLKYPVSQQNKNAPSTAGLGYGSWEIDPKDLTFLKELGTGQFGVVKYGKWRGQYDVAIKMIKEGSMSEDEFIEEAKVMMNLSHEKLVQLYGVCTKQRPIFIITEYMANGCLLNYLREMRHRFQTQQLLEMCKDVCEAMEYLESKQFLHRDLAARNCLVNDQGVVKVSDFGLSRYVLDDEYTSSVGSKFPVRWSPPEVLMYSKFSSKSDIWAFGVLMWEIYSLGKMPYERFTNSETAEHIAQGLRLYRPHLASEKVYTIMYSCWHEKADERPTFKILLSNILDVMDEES

Compound	pIC50
Nc1nccn2c([C@@H]3CC[C@H]4CCC(=O)N4C3)nc(-c3ccc(C(=O)Nc4cc(OC5CC5)ccn4)cc3F)c12 [Example 43, 4-{8-amino-3-[(6R,8aS)-3-oxooctahydroindolizin-6-yl]imidazo[1,5-a]pyrazin-1-yl}-N-[4-(cyclopropyloxy)pyridin-2-yl]-3-fluorobenzamide]	9.89
C[C@@H]1OC(=O)N2C[C@H](c3nc(-c4ccc(C(=O)Nc5cc(C6CC6)ccn5)cc4F)c4c(N)nccn34)CC[C@@H]12 [Example 37, 4-{8-amino-3-[(1S,6R,8aS)-1-methyl-3-oxohexahydro[1,3]oxazolo[3,4-a]pyridin-6-yl]imidazo[1,5-a]pyrazin-1-yl}-N-(4-cyclopropylpyridin-2-yl)-3-fluorobenzamide]	9.41
Nc1nccn2c([C@@H]3CC[C@H]4CCC(=O)N4C3)nc(-c3ccc(C(=O)Nc4cc(C(F)F)ccn4)cc3F)c12 [Example 14, 4-{8-amino-3-[(6R,8aS)-3-oxooctahydroindolizin-6-yl]imidazo[1,5-a]pyrazin-1-yl}-N-[4-(difluoromethyl)pyridin-2-yl]-3-fluorobenzamide]	9.92
Nc1nccn2c([C@@H]3CC[C@H]4CCC(=O)N4C3)nc(-c3ccc(C(=O)Nc4cc(C5CC5)ccn4)c(F)c3)c12 [Example 27, 4-{8-amino-3-[(6R,8aS)-3-oxooctahydroindolizin-6-yl]imidazo[1,5-a]pyrazin-1-yl}-N-(4-cyclopropylpyridin-2-yl)-2-fluorobenzamide]	8.96
COc1cc(C(=O)Nc2cc(C(F)(F)F)ccn2)ccc1-c1nc([C@@H]2CC[C@H]3CCC(=O)N3C2)n2c(Cl)cnc(N)c12 [Example 143, 4-{8-amino-5-chloro-3-[(6R,8aS)-3-oxooctahydroindolizin-6-yl]imidazo[1,5-a]pyrazin-1-yl}-3-methoxy-N-[4-(trifluoromethyl)pyridin-2-yl]benzamide]	9.66

Results, then the compound that gave them:

pIC50	Compound
6.62	Nc1nccn2c([C@@H]3CC[C@H]4CCC(=O)N4C3)nc(-c3ccc(C(=O)Nc4cc(C(F)(F)F)no4)cc3)c12 [Example 174, 4-{8-amino-3-[(6R,8aS)-3-oxooctahydroindolizin-6-yl]imidazo[1,5-a]pyrazin-1-yl}-N-[3-(trifluoromethyl)isoxazol-5-yl]benzamide]
9.03	Cn1nc(NC(=O)c2ccc(-c3nc([C@@H]4CC[C@H]5CCC(=O)N5C4)n4ccnc(N)c34)cc2)cc1C1CC1 [Example 181, 4-{8-amino-3-[(6R,8aS)-3-oxooctahydroindolizin-6-yl]imidazo[1,5-a]pyrazin-1-yl}-N-(5-cyclopropyl-1-methyl-1H-pyrazol-3-yl)benzamide]
9.70	CCOc1cc(C(=O)Nc2cc(C(F)(F)F)ccn2)ccc1-c1nc([C@@H]2CC[C@@H]3N(C2)C(=O)CC3(C)C)n2ccnc(N)c12 [Example 222, 4-(8-amino-3-((6R,8aS)-1,1-dimethyl-3-oxooctahydroindolizin-6-yl)imidazo[1,5-a]pyrazin-1-yl)-3-ethoxy-N-(4-(trifluoromethyl)pyridin-2-yl)benzamide]
6.81	CCOC(=O)c1oc(NC(=O)c2ccc(-c3nc([C@@H]4CC[C@H]5CCC(=O)N5C4)n4ccnc(N)c34)cc2)nc1C(F)(F)F [Example 184, ethyl 2-{[(4-{8-amino-3-[(6R,8aS)-3-oxooctahydroindolizin-6-yl]imidazol[1,5-a]pyrazin-1-yl}phenyl)carbonyl]amino}-4-(trifluoromethyl)-1,3-oxazole-5-carboxylate]
8.16	Cc1cc(C(=O)Nc2cc(C(F)(F)F)n(C)n2)ccc1-c1nc([C@@H]2CC[C@H]3CCC(=O)N3C2)n2ccnc(N)c12 [Example 186, 4-{8-amino-3-[(6R,8aS)-3-oxooctahydroindolizin-6-yl]imidazo[1,5-a]pyrazin-1-yl}-3-methyl-N-[1-methyl-5-(trifluoromethyl)-1H-pyrazol-3-yl]benzamide]
